Type in all cases: functional
Common to all, as to conditions: read-out: ED50 (the source's name)

One assay has as its system SK-OV-3. As to the kind of experiment: Cytotoxicity against human SK-OV-3 cells.
The subject of another assay is XF498. The assay can be described thus: Cytotoxicity against human XF498 cells.
For another assay, the system named is HCT-15. As to the kind of experiment: Cytotoxicity against human HCT15 cells.
Another assay concerns A549. The assay can be described thus: Cytotoxicity against human A549 cells.
Another assay concerns SK-MEL-2. The assay can be described thus: Cytotoxicity against human SK-MEL-2 cells.

Converted amounts (≈) assume the structure as drawn. Where only a bound is given, the exact number is not on record here.

As for `CCCCCCCC#CC#C/C=C\C(C)=O` [MONTIPORYNE B], the EC50 with SK-OV-3 is 25.9 µg/mL (≈ 120 µM); in the assay on XF498, > 50 µg/mL; in the assay on HCT-15, > 50 µg/mL; in the assay on A549, > 50 µg/mL; with SK-MEL-2, 42.6 µg/mL (≈ 197 µM).

With `CCCCCCCC#CC#CC1=CC(=O)NCCC1` [MONTIPORYINE E], the EC50 with SK-OV-3, in the assay on XF498, in the assay on HCT-15, with A549 and in the assay with SK-MEL-2 was > 50 µg/mL throughout.

As to `CCCCCCCC#CC#CC1CC(=O)C=C(C)C1` (stereo not given) [MONTIPORYINE F], the EC50 in the assay with SK-OV-3 is 29.2 µg/mL (≈ 114 µM); in the assay with XF498, 31.3 µg/mL (≈ 122 µM); in the assay with HCT-15, 45.1 µg/mL (≈ 176 µM); in the assay with A549 it was > 50 µg/mL; in the assay with SK-MEL-2, 36.7 µg/mL (≈ 143 µM).

For the compound `C=CCCCCCCCC#CC#C/C=C/C(C)=O` [MONTIPORYNE C], the EC50 with SK-OV-3 is 2.5 µg/mL (≈ 10.3 µM); in the assay with XF498, 3.2 µg/mL (≈ 13.2 µM); in the assay on HCT-15 it was 5.2 µg/mL (≈ 21.5 µM); in the assay on A549, > 50 µg/mL; in the assay on SK-MEL-2 it was 1.5 µg/mL (≈ 6.19 µM).

With `CCCCCCCC#CC#C/C=C/C(C)=O` [MONTIPORYNE A], the EC50 was 3.2 µg/mL (≈ 14.8 µM) in the assay with SK-OV-3; 1.9 µg/mL (≈ 8.78 µM) with XF498; 3.7 µg/mL (≈ 17.1 µM) with HCT-15; > 50 µg/mL in the assay on A549; 1.4 µg/mL (≈ 6.47 µM) with SK-MEL-2.

On to `C=CCCCCCCCC#CC#C/C=C\C(C)=O` [MONTIPORYINE D], for which the EC50 is 45.1 µg/mL (≈ 186 µM) in the assay on SK-OV-3; > 50 µg/mL in the assay with XF498; > 50 µg/mL in the assay on HCT-15; > 50 µg/mL in the assay on A549; 43.1 µg/mL (≈ 178 µM) in the assay with SK-MEL-2.

(Values after ChEMBL document CHEMBL1155622, “New acetylenic compounds from the stony coral Montipora sp” (2000).)
